Experimental data as given in patent US10131652B2, “Pyrimidinyloxy benzene derivatives as herbicides” (E. I. DU PONT DE NEMOURS AND COMPANY, priority 2014, dated 2018).
Read-outs that look alike come from different tables or passages of the source.

Key:
Assay in all cases: Test F pre-/postemergence plant response
Format in all cases: in vivo
[1] = system: goosegrass (Eleusine indica); details: Eleusine indica, pre-emergence, scale 0 to 100, read-out: Plant response rating, Goosegrass
In short: (§1)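 Plant response is a visual score from 0, meaning no effect, to 100, meaning complete control, assigned by comparison with untreated plants. Ratings were made 14 to 21 days after preemergence application to seeded silt loam or postemergence application to plants at the 1- to 4-leaf stage.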

[2] = system: velvetleaf (Abutilon theophrasti); details: Abutilon theophrasti, pre-emergence, scale 0 to 100, read-out: Plant response rating, Velvetleaf
In short: as §1

[3] = system: arrowleaf sida (Sida rhombifolia); details: Sida rhombifolia, scale 0 to 100, read-out: Plant response rating, Arrowleaf Sida
In short: as §1

[4] = system: sandbur (southern sandbur, Cenchrus echinatus); details: Cenchrus echinatus, scale 0 to 100, read-out: Plant response rating, Sandbur
In short: as §1

[5] = system: palmer pigweed (Amaranthus palmeri); details: Amaranthus palmeri, scale 0 to 100, read-out: Plant response rating, Pigweed, Palmer
In short: as §1

[6] = system: Brazilian crabgrass (Digitaria horizontalis); details: Digitaria horizontalis, scale 0 to 100, read-out: Plant response rating, Crabgrass, Brazil
In short: as §1

[7] = system: nightshade (eastern black nightshade, Solanum ptycanthum); details: Solanum, pre-emergence, scale 0 to 100, read-out: Plant response rating, Nightshade
In short: as §1

corn (Zea mays) = details: Zea mays, scale 0 to 100
In short: as §1

[8] = system: fall panicum (Panicum dichotomiflorum); details: Panicum dichotomiflorum, scale 0 to 100, read-out: Plant response rating, Panicum, Fall
In short: as §1

[9] = system: hairy beggarticks (Bidens pilosa); details: Bidens pilosa, scale 0 to 100, read-out: Plant response rating, Beggarticks
In short: as §1

[10] = post-emergence, 16 g ai/ha Postemergence
[11] = post-emergence, 31 g ai/ha Postemergence
[12] = post-emergence, 62 g ai/ha Postemergence
[13] = post-emergence, 125 g ai/ha Postemergence
[14] = pre-emergence, 16 g ai/ha Preemergence
[15] = pre-emergence, 31 g ai/ha Preemergence
[16] = pre-emergence, 62 g ai/ha Preemergence
[17] = pre-emergence, 125 g ai/ha Preemergence

Fc1cccc(Oc2ncc(Br)cn2)c1-c1cc(C(F)F)no1 [Compound 145, 5-bromo-2-[2-[3-(difluoromethyl)-5-isoxazolyl]-3-fluorophenoxy]pyrimidine]
20%: pest or weed control at 16 g/ha [6, 10] | pest or weed control at 31 g/ha [6, 11] | Corn plant response rating (crop injury, 0 = no effect, 100 = complete kill) at 62 g/ha (corn (Zea mays); [12]) | Corn plant response rating (crop injury, 0 = no effect, 100 = complete kill) at 125 g/ha (corn (Zea mays); [13])
15%: pest or weed control at 125 g/ha [4, 13]
100%: pest or weed control at 125 g/ha ([2]; 125 g ai/ha Preemergence) | pest or weed control at 62 g/ha ([2]; Preemergence) | pest or weed control at 31 g/ha [5, 11] | pest or weed control at 62 g/ha [5, 12] | pest or weed control at 125 g/ha [5, 13] | pest or weed control at 16 g/ha [5, 14] | pest or weed control at 31 g/ha [5, 15] | pest or weed control at 125 g/ha [5, 17] | pest or weed control at 62 g/ha ([5]; pre-emergence, Preemergence) | pest or weed control at 125 g/ha [6, 17] | pest or weed control at 125 g/ha [8, 17]
35%: pest or weed control at 16 g/ha ([2]; 16 g ai/ha Preemergence) | pest or weed control at 31 g/ha [4, 15] | pest or weed control at 31 g/ha [9, 15]
0%: pest or weed control at 16 g/ha ([1]; 16 g ai/ha Preemergence) | pest or weed control at 16 g/ha [4, 14] | Corn plant response rating (crop injury, 0 = no effect, 100 = complete kill) at 16 g/ha (corn (Zea mays); [14]) | Corn plant response rating (crop injury, 0 = no effect, 100 = complete kill) at 31 g/ha (corn (Zea mays); [15]) | pest or weed control at 16 g/ha [9, 14]
30%: pest or weed control at 62 g/ha [9, 16]
65%: pest or weed control at 16 g/ha [3, 14] | pest or weed control at 16 g/ha [8, 14] | pest or weed control at 62 g/ha [9, 12]
80%: pest or weed control at 62 g/ha ([1]; Preemergence) | pest or weed control at 31 g/ha [6, 15] | pest or weed control at 31 g/ha ([7]; 31 g ai/ha Preemergence) | pest or weed control at 125 g/ha [8, 13] | pest or weed control at 31 g/ha [8, 15]
10%: Corn plant response rating (crop injury, 0 = no effect, 100 = complete kill) at 31 g/ha (corn (Zea mays); [11]) | pest or weed control at 16 g/ha [8, 10] | pest or weed control at 31 g/ha [8, 11]
95%: pest or weed control at 125 g/ha ([1]; 125 g ai/ha Preemergence) | pest or weed control at 16 g/ha [3, 10] | pest or weed control at 31 g/ha [3, 11] | pest or weed control at 125 g/ha [3, 13] | pest or weed control at 125 g/ha [4, 17] | pest or weed control at 16 g/ha [5, 10] | pest or weed control at 62 g/ha [6, 16] | pest or weed control at 62 g/ha ([8]; pre-emergence, Preemergence)
25%: pest or weed control at 62 g/ha ([4]; pre-emergence, Preemergence) | pest or weed control at 125 g/ha [9, 17]
50%: pest or weed control at 125 g/ha [6, 13] | pest or weed control at 62 g/ha [8, 12] | pest or weed control at 31 g/ha [9, 11]
70%: pest or weed control at 31 g/ha ([1]; 31 g ai/ha Preemergence) | pest or weed control at 125 g/ha [9, 13]
55%: pest or weed control at 16 g/ha [9, 10]
40%: pest or weed control at 62 g/ha [6, 12] | Corn plant response rating (crop injury, 0 = no effect, 100 = complete kill) at 62 g/ha (corn (Zea mays); [16])
60%: Corn plant response rating (crop injury, 0 = no effect, 100 = complete kill) at 125 g/ha (corn (Zea mays); [17])
98%: pest or weed control at 31 g/ha ([2]; 31 g ai/ha Preemergence) | pest or weed control at 62 g/ha [3, 12] | pest or weed control at 62 g/ha [3, 16] | pest or weed control at 125 g/ha [3, 17] | pest or weed control at 125 g/ha ([7]; 125 g ai/ha Preemergence) | pest or weed control at 62 g/ha ([7]; Preemergence)
5%: pest or weed control at 16 g/ha [4, 10] | pest or weed control at 31 g/ha [4, 11] | pest or weed control at 62 g/ha [4, 12] | pest or weed control at 16 g/ha [6, 14] | Corn plant response rating (crop injury, 0 = no effect, 100 = complete kill) at 16 g/ha (corn (Zea mays); [10])
90%: pest or weed control at 31 g/ha [3, 15] | pest or weed control at 16 g/ha ([7]; 16 g ai/ha Preemergence)
